Structures are written as SMILES. pIC50: −log10 of the molar value.

Assay [1] deals with Mus musculus. Kind of assay: Reduction in insulin-induced protein tyrosine phosphorylation in liver of ob/ob mice at 10 mg/kg perorally. The following applies: route oral. The assay is classed as functional.
Assay [2] concerns Mus musculus. The assay can be described thus: Reduction in insulin-induced protein tyrosine phosphorylation in liver of ob/ob mice at 25 mg/kg perorally. It counts as functional. To be noted: route oral.
Assay [3] addresses T1, Tyrosine-protein phosphatase non-receptor type 1 (Homo sapiens, UniProt P18031).
T1 sequence (P18031 whole entry): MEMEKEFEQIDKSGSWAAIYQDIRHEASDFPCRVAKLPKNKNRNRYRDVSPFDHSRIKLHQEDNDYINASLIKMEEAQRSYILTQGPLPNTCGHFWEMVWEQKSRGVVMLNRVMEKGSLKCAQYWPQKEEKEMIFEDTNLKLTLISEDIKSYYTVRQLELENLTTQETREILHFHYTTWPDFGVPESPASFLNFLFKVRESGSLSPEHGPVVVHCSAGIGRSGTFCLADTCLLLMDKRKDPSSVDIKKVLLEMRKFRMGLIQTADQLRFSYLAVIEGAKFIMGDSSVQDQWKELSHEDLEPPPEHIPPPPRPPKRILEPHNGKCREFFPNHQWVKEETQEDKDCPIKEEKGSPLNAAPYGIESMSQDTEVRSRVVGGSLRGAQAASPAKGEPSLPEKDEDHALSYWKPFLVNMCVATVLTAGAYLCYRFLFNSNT
The assay can be described thus: Compound was evaluated for the inhibitory activity against recombinant Protein-tyrosine phosphatase 1B using, phosphotyrosyl dodecapeptide [TRDI(P)YETD(P)Y(P)YRK] as substrate.

For the compound `Cc1oc2cc3sc4ccccc4c3c(-c3cc(I)c(O[C@H](Cc4ccccc4)C(=O)O)c(I)c3)c2c1C`, the Insulin lowering effect with Mus musculus [1] is 43%.

With `O=C(O)[C@@H](Cc1ccccc1)Oc1c(I)cc(-c2c3ccccc3cc3sc4ccccc4c23)cc1I`, the Insulin lowering effect with Mus musculus [2] is 68%. Also, the pIC50 in assay [3] is 6.75.

The term pIC50 denotes the negative decadic logarithm of the IC50, by convention in mol/L.

For the origin of these results see ChEMBL document CHEMBL1133228, “Synthesis and PTP1B inhibition of novel 4-aryl-1-oxa-9-thiacyclopenta[b]fluorenes” (Bioorg Med Chem Lett, 2000).
